Experimental data as given in patent US20250099420A1, “SMALL MOLECULE MODULATORS OF GPR139 COMPLEX” (University of Florida Research Foundation, Incorporated, priority 2022, published 2025).
Where two headings read alike, the source gives them in different places.

Experiments:
[1] = test system: parental HEK cells; assay: HEK parental Agonist Counterscreen Assay (non-transfected cells); format: cell-based; details: for Averaged Max % Response (±St. Dev.): activity relative to known control
Source text: The high control for the agonist counterscreen was Forskolin not acetylcholine.

[2] = target: T1, GPR139 (Homo sapiens, UniProt Q6DWJ6); assay: GPR139 Agonist titration / agonist counterscreen assay (calcium detection, HEK-GPR139 cells); format: cell-based; parameters: expressed in transfected cells; host or cells: HEK Aequorin cells, Maxcyte transient transfection; details: GPR139 Agonist Activity; for Averaged Max % Response (±St. Dev.): activity relative to known control; for EC50: read-out: EC50
T1 sequence (Q6DWJ6 1-353): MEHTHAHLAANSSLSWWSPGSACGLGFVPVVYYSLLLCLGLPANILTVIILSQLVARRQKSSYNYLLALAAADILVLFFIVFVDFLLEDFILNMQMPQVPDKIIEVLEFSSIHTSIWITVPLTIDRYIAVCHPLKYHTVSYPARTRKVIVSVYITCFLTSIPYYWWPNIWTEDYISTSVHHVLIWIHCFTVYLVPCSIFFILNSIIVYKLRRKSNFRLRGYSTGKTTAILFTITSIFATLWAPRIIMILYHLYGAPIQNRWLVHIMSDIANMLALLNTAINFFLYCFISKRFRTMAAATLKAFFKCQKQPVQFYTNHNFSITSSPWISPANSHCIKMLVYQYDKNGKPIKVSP
Protocol: GPR activity was assessed using a calcium detection assay. […] Negative control samples were treated with DMSO. […] Intracellular calcium was measured using Calcium 5.

[3] = HEK Agonist Activity section of Table 4 (parental HEK counterscreen)
[4] = values printed in E-notation without unit
[5] = Homo sapiens, HEK293, HEK Agonist Activity section of Table 4 (parental HEK counterscreen)
[6] = HEK Agonist Activity, parental non-transfected HEK cells

| Compound | Lipophilic Efficiency (logD) ([1]; HEK Agonist Activity section) | Lipophilic Efficiency (logP) ([1]; HEK Agonist Activity section) | EC50 [1, 3] | Averaged Max % Response (±St. Dev.) ([1]; HEK Agonist Activity section) | Averaged Max % Response (±St. Dev.) [2] | Lipophilic Efficiency (logD) ([2]; based on logD) | Lipophilic Efficiency (logP) ([2]; based on logP) | Hill Slope ([2]; fitted dose-response curve) | Efficiency Ligand ([2]; ligand efficiency) | EC50 [2, 4] | EC50 [1, 5] | Lipophilic Efficiency (logD) ([1]; HEK Agonist Activity) | Lipophilic Efficiency (logP) ([1]; HEK Agonist Activity) | Averaged Max % Response (±St. Dev.) ([1]; HEK Agonist Activity) | also measured |
| --- | --- | --- | --- | --- | --- | --- | --- | --- | --- | --- | --- | --- | --- | --- | --- |
| C=CCC(O)(CC=C)C(C)NC(=O)CCC1(Cc2ccc3ccccc3c2)CCC(=O)N1 (stereo not shown) [SR-01000190122] | 1.27 | 1.27 | > 14100 nM | 0.66 ± 6.28% | 134.89 ± 17.50% | 3.22 | 3.22 | 0.52 | 0.30 | 161 nM | – | – | – | – | – |
| CN(CCC(=O)NCC1Cc2cccc(-c3ccccn3)c2O1)C1CCS(=O)(=O)C1 (stereo not shown) [SR-01000193031] | 4.36 | 4.19 | – | 25.60 ± 3.67% | 95.01 ± 4.20% | – | – | – | – | – | > 14100 nM | – | – | – | Efficiency Ligand [2]: 0.30; Hill Slope [2]: 0.62; Lipophilic Efficiency (logD) [2]: 5.90; Lipophilic Efficiency (logP) [2]: 5.73; EC50 ([2]; HEK-GPR139 cells): 406 nM |
| COC(=O)C(CCSC)NC(=O)C1CC(Cc2ccc3c(c2)OCO3)=NO1 (stereo not shown) [SR-01000193756] | 3.01 | 3.01 | > 14100 nM | −12.55 ± 2.76% | 75.38 ± 12.05% | – | – | – | – | – | – | – | – | – | Efficiency Ligand [2]: 0.30; Hill Slope [2]: 0.69; Lipophilic Efficiency (logD) [2]: 4.01; Lipophilic Efficiency (logP) [2]: 4.01; EC50 ([2]; HEK-GPR139 cells): 1400 nM |
| CC(NC(=O)Cn1cc(NC(=O)c2ccccc2F)cn1)c1ccccc1Cl (stereo not shown) [SR-01000194602] | – | – | – | – | 94.95 ± 1.55% | 4.44 | 4.44 | 0.71 | 0.39 | 19.1 nM | – | 1.58 | 1.58 | 4.93 ± 4.93% | EC50 [1, 6]: > 14100 nM |
| O=C(c1ccccc1)C1CCCCC1S(=O)(=O)O (stereo not shown) [SR-01000197834] | 4.95 | 2.58 | – | 18.65 ± 10.85% | 95.96 ± 5.70% | 6.98 | 4.61 | 1.09 | 0.54 | 131 nM | > 14100 nM | – | – | – | – |
| O=C(NNC(=O)C1CC1c1ccccc1)Nc1cccc(Cl)c1 (stereo not shown) [SR-01000202338] | – | – | – | – | 79.48 ± 15.63% | 4.84 | 4.84 | 1.63 | 0.48 | 11.6 nM | – | 1.76 | 1.76 | 4.74 ± 3.91% | EC50 ([1]; Homo sapiens, HEK293, HEK Agonist Activity, parental non-transfected HEK cells): > 14100 nM |
| COc1cccc(C(=O)NNC(=O)CCCOc2ccc(Cl)cc2Cl)c1 [SR-01000205482] | – | – | – | – | 120.13 ± 6.96% | 5.35 | 5.34 | – | 0.47 | – | – | 1.53 | 1.52 | −5.45 ± 10.43% | EC50 [1, 6]: > 14100 nM |
| Cc1cccnc1CNC(=O)CCC1(Cc2cccc3ccccc23)CCC(=O)N1 (stereo not shown) [SR-01000207758] | 1.92 | 1.92 | > 14100 nM | 2.94 ± 8.83% | 124.78 ± 10.06% | 3.82 | 3.82 | 0.77 | 0.31 | 178 nM | – | – | – | – | – |
| Cc1cc(C)c(/C=C2/NC(=N)NC2=O)c(C)c1 [SR-01000218376] | 1.45 | 1.45 | – | 1.93 ± 7.79% | 76.44 ± 0.80% | 3.82 | 3.82 | 0.92 | 0.59 | 60.5 nM | > 14100 nM | – | – | – | – |
